Consider twelve compounds from patent publication US4208409A, “N-[(phosphinyl or phosphinothioyl)amino]thio-methylcarbamates and pesticidal methods” (priority 1978, dated 1980).

In one series the test system is southern armyworm (SAW). Nature of the series: southern armyworm mortality test (bush lima bean leaf dip). Particulars: Spodoptera eridania, foliar. The series is classed as in vivo, Prodenia eridania Cramer. The source says: (§1) Representative pest species have been used, illustratively, order Lepidoptera, more specifically, the southern armyworm (SAW), (Prodenia eridania Cramer), the tobacco budworm (TBW), (Heliothis virescens), and the cabbage looper (CL) (Trichoplusia ni); order Acarina, more specifically, the two-spotted spider mite (TSSM) (Tetranychus urticae Koch); order Diptera, more specifically, the housefly (HF) (Musca domestica Linnaeus) or the yellow-fever mosquito (YFM) (Aedes aegypti); order Orthoptera, more specifically, the house cricket (HC) (Acheta domesticus Linnaeus) or the German cockroach (GC) (Blatella germanica Linnaeus); order Coleoptera, more specifically, the cotton boll weevil (BW) (Anthonomus grandis Boheman).
(§2) Preparation of tested chemicals--Analytical samples of each were dissolved in acetone. These acetone solutions were applied as such or portions of them were diluted with a Tween 20 "wet water" or a 10% sucrose "wet water". The "wet water" itself contained 0.132% v/v of Tween 20 (polyoxyethylene sorbitan monolaurate).
(§3) The southern armyworm and cabbage looper tests were effected with Henderson bush lima bean foliage characterized by two primary leaves per replicate. The leaves were dipped into a "wet water" emulsion of a test chemical, allowed to dry, and then placed on a moistened filter disk in a 9 cm plastic petri dish. Five larva of the respective test insects were put on the leaves, the cover of the petri dish was replaced, and it was set aside for future evaluation. Three replications for each treatment rate were prepared.
(§4) The southern armyworm, house cricket, boll weevil, house fly, and cabbage looper tests were held at 22° C., while the yellow fever mosquito larvae tests were held at 27° C.
(§5) The tests were evaluated for insect kill (including moribund and knocked down) after 24, 48, and sometimes 72 hours.

Series [1] concerns yellow-fever mosquito (YFM). The series is described as follows: whole plant or invertebrate. Type of series: in vivo. Particulars: Aedes aegypti.
Source text: as §1, §2
The yellow fever mosquito larvae test was effected by adding the appropriate amount of a wet water and acetone solution of the test chemical to 100 ml distilled water in a 5-ounce waxed paper cup. Ten mosquito larvae were added. […]
as §5

The nature of a further series: crystallinity. The series is classed as physicochemical.
In a further series the test system is cabbage looper (CL). Nature of the series: cabbage looper mortality test (bush lima bean leaf dip). The series is classed as in vivo. Particulars: Trichoplusia ni, foliar; for mortality at 11 ppm: rate 11 ppm.
Source text: as §1, §2, §3, §4, §5

A further series concerns housefly (HF). Nature of the series: house fly mortality test (saturated cotton wad). Type of series: in vivo, Musca domestica Linnaeus. Particulars: Musca domestica.
Source text: as §1, §2
(§6) The house fly and boll weevil tests were effected by saturating a golf-ball size wad of cotton with 10 ml of a "10% wet sugar water" preparation of the test chemical. […]
as §5

A further series has as its system cotton boll weevil (BW). The series is described as follows: boll weevil mortality test (saturated cotton wad). Type of series: in vivo, Anthonomus grandis Boheman.
Source text: as §1, §2, §6, §5

Another series has as its system plant. The series is described as follows: phytotoxicity compared with the parent compound. Type of series: in vivo. Particulars: for average phytotoxicity index: after eight days, scale 0 = no damage, 10 = complete kill of plant. The source says: (§7) In other tests, the phytotoxicity, residual effectiveness, and animal toxicity of e.g. Methyl N-[[[[[(diethoxyphosphinothioyl)isopropylamino]thio]methylamino]carbonyl]oxy]ethanimidothioate were compared with the parent compound, methyl N-[[(methylamino)carbonyl]oxy]ethanimidothioate. […] The parent compound had corresponding index values of 4.25 and 5.0.

The subject of another series is eggplant. Nature of the series: phytotoxicity on the sensitive crop, eggplant, compared with the parent compound. Type of series: in vivo.
Source text: as §7

The next series concerns southern armyworm larvae. Nature of the series: foliar residual effectiveness against southern armyworm larvae on lima bean seedlings. Type of series: in vivo, Prodenia eridania Cramer. An excerpt: These compounds were also compared for their foliar residual effectiveness against southern armyworm larvae on lima bean seedlings. The compound Methyl N-[[[[[(diethoxyphosphinothioyl)isopropylamino]thio]methylamino]carbonyl]oxy]ethanimidothioate of this invention was producing 100 percent mortality seven weeks after the treatment was applied, whereas the activity of the parent compound at an equivalent rate had dissipated to 20% by the 14th day.

A short description of series [2]: acute oral toxicity to male rats. The series is classed as in vivo, rat. The note with it: rat, in vivo.
Another series concerns male rats. The series is described as follows: acute oral toxicity to male rats. The series is classed as in vivo, rat.
In a further series the test system is tobacco budworm (TBW). Nature of the series: tobacco budworm mortality test. Type of series: in vivo. Particulars: Heliothis virescens.
Source text: as §1, §2, §5

Series [3] can be described thus: Mammalian Toxicity, oral LD50, rat. Particulars: in vivo.

Where two headings read alike, the source gives them in different places.

For the compound `CCCN(SN(C)C(=O)Oc1cc(C)c(N(C)C)c(C)c1)P(=S)(OCC)OCC` [4-(dimethylamino)-3,5-xylyl [[(diethoxyphosphinothioyl)-n-propylamino]thio]methylcarbamate], the mortality at 100 ppm with southern armyworm (SAW) amounted to 100%. The same compound registered a mortality at 0.6 ppm in series [1] (rate 0.6 ppm) of 100%.
For `CSC(C)=NOC(=O)N(C)SN(C(C)(C)C)P1(=S)OCC(C)(C)CO1` [Methyl N-[[[[[(5,5-dimethyl-2-thioxo-1,3,2-dioxaphosphorinano-2-yl)tert-butylamino]thio]methylamino]carbonyl]oxy]ethanimidothioate], the crystallinity entry in “crystallinity” is given as “extremely crystalline”.
On to `CCOP(=S)(OCC)N(SN(C)C(=O)ON=C(C)SC)C(C)C` [Methyl N-[[[[[(diethoxyphosphinothioyl)isopropylamino]thio]methylamino]carbonyl]oxy]ethanimidothioate], for which the mortality at 3.3 ppm in the series with southern armyworm (SAW) is 100%; with cabbage looper (CL) (CL, rate 3.3 ppm, read-out: Mortality), 100%. The compound further yielded a mortality at 1 ppm in series [1] (rate 1.0 ppm) of 100%. Besides, in the series on housefly (HF) (HF, rate 25 ppm, read-out: Mortality), the mortality at 25 ppm stood at 80%. This compound yielded a mortality at 50 ppm with cotton boll weevil (BW) (BW, rate 50 ppm) of 60%. For the same compound, the values for the average phytotoxicity index result in the series with plant (300 ppm) and in the series with plant (600 ppm) were “about 1.0” and around 1.5, respectively. Besides, the “phytotoxicity compared with parent compound” value with plant (in general) is listed as “in general less phytotoxic than the parent”; with eggplant it was “markedly less phytotoxic”. Further, the “mortality, foliar residual effectiveness” value in the series on southern armyworm larvae (seven weeks after the treatment was applied, 70560 min) turned out to be 100%. In series [2], this compound had an LD50 of 105 mg/kg. Further, the “oral toxicity relative to the parent methylcarbamate” value in the series on male rats is “less than one fourth as toxic as the parent methylcarbamate”.
As to `COP(=S)(c1ccccc1)N(SN(C)C(=O)ON=C(C)SC)C(C)C` (centres unmarked) [Methyl N-[[[[[[methoxy(phenyl)phosphinothioyl]isopropylamino]thio]methylamino]carbonyl]oxy]ethanimidothioate], the mortality at 3.3 ppm with southern armyworm (SAW) was 90%; in the series on cabbage looper (CL), 50%. The mortality at 25 ppm stood at 50% with housefly (HF) and 80% in the series with cotton boll weevil (BW).
With `CSC(C)=NOC(=O)N(C)SN(C1CCCCC1)P1(=S)OCC(C)(C)CO1` [Methyl N-[[[[[cyclohexyl(5,5-dimethyl-2-thioxo-1,3,2-dioxaphosphorinan-2-yl)amino]thio]methylamino]carbonyl]oxy]ethanimidothioate], the mortality at 11 ppm in the series on southern armyworm (SAW) stood at 70%; in the series with cabbage looper (CL) (CL), 87.5%; in the series on tobacco budworm (TBW) it was 95%. This compound also displayed an LD50 in [3] above 8000 mg/kg.
With `CSC(C)=NOC(=O)N(C)SN(C(C)C)P1(=S)OCCO1` [Methyl N-[[[[[isopropyl(2-thioxo-1,3,2-phospholan-2-yl)amino]thio]methylamino]carbonyl]oxy]ethanimidothioate], the mortality at 11 ppm was determined as 40% with southern armyworm (SAW), 48% in the series on cabbage looper (CL) (CL) and 45% in the series with tobacco budworm (TBW).
Compound `CSC(C)=NOC(=O)N(C)SN(C(C)C)P1(=S)OC(C)CC(C)(C)O1` (centres unmarked) [Methyl N-[[[[[isopropyl(4,4,6-trimethyl-2-thioxo-1,3,2-dioxaphosphorinan-2-yl)amino]thio]methylamino]carbonyl]oxy]ethanimidothioate] registered a mortality at 11 ppm with cabbage looper (CL) (CL) of 92.5%.
Consider `CCC1(CC)COP(=S)(N(SN(C)C(=O)ON=C(C)SC)C(C)C)OC1` [Methyl N-[[[[[isopropyl(5,5-diethyl-2-thioxo-1,3,2-dioxaphosphorinan-2-yl)amino]thio]methylamino]carbonyl]oxy]ethanimidothioate], for which the values for the mortality at 11 ppm in the series on southern armyworm (SAW), with cabbage looper (CL) (CL) and in the series on tobacco budworm (TBW) were 60%, 95% and 100%, respectively. In addition, in series [3], the LD50 was above 2000 mg/kg.
`CCC1(CC)COP(=S)(N(SN(C)C(=O)ON=C(C)SC)C2CCCCC2)OC1` [Methyl-[[[[[cyclohexyl(5,5-diethyl-2-thioxo-1,3,2-dioxaphosphorinan-2-yl)amino]thio]methylamino]carbonyl]oxy]ethanimidothioate]: the mortality at 11 ppm with southern armyworm (SAW) is 70%; with cabbage looper (CL) (CL), 77.5%; in the series on tobacco budworm (TBW) it was 95%. Moreover, the LD50 in series [3] was above 8000 mg/kg.
The compound `CCN(SN(C)C(=O)ON=C(C)SC)P1(=S)OCC(C)(C)CO1` [Methyl-[[[[[ethyl(5,5-dimethyl-2-thioxo-1,3,2-dioxaphosphorinan-2-yl)amino]thio]methylamino]carbonyl]oxy]ethanimidothioate] showed a mortality at 11 ppm in the series with cabbage looper (CL) (CL) of 56%.
`CSC(C)=NOC(=O)N(C)SN(C(C)C)P1(=S)OCCCO1` [Methyl-[[[[[isopropyl(2-thioxo-1,3,2-dioxaphosphorinan-2-yl)amino]thio]methylamino]carbonyl]oxy]ethanimidothioate] had a mortality at 11 ppm in the series on southern armyworm (SAW) of 56%.
For `CNC(=O)ON=C(C)SC` [methyl N-[[(methylamino)carbonyl]oxy]ethanimidothioate, reference compound], the average phytotoxicity index turned out to be 4.25 with plant (300 ppm) and 5.0 in the series with plant (600 ppm). In the series with southern armyworm larvae (by the 14th day, at an equivalent rate), the foliar residual activity came out at 20%. In [2], the LD50 lay in the range of 17 to 24 mg/kg.

The term mortality denotes the percentage killed. As a reminder, the LD50 is the dose expected to kill half of the subjects tested. High values mean a less toxic substance, low ones a more toxic substance.
